Laboratory results: patent US11358969B2, “Indole AHR inhibitors and uses thereof” (Ikena Oncology, Inc., priority 2017, dated 2022)

Biological target: T1, AHR (UniProt P35869)
T1 construct: IC50
T1 sequence (P35869 1-848): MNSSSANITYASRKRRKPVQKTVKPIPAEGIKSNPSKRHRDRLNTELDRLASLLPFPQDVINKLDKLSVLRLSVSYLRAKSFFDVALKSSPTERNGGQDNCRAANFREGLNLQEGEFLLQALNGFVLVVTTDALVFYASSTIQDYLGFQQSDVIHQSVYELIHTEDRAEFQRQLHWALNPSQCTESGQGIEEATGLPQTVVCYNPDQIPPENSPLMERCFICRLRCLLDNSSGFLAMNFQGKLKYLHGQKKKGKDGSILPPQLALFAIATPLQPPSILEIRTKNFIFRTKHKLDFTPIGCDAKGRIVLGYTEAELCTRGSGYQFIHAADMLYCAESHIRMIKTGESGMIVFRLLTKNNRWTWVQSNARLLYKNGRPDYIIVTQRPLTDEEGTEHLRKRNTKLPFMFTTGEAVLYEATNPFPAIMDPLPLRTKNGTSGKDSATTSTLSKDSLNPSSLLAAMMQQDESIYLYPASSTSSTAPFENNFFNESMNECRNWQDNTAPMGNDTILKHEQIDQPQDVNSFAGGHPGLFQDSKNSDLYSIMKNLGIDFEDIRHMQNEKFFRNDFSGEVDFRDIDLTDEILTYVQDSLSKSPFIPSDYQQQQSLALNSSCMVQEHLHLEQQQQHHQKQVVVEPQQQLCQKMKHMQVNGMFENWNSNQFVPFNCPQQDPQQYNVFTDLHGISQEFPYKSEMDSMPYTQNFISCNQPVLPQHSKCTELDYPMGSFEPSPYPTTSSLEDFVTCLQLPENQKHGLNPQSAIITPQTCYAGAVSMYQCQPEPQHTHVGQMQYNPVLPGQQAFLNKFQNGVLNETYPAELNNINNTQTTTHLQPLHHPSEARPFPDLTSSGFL
Experiment: DRE-Luciferase Reporter Assay (Alternate Method) (Example 1B)
Assay type: cell-based, murine or human
Details: cell line and AHR activating ligand not specified

| IC50 [nM] | SMILES |
| --- | --- |
| > 1500 | CC(C)c1cnn2c(NCCc3c[nH]c4ccccc34)ccnc12 [I-31, N-[2-(1H-indol-3-yl)ethyl]-3-isopropyl-pyrazolo[1,5-a]pyrimidin-7-amine] |
| < 500 | Fc1cncc(-c2nc(N[C@H]3CCc4[nH]ccc4C3)c3ncccc3n2)c1 [I-252a, 2-(5-Fluoro-3-pyridyl)-N-[(5S)-4,5,6,7-tetrahydro-1H-indol-5-yl]pyrido[3,2-d]pyrimidin-4-amine] |
| < 500 | CC(C)c1cnn2c(N[C@H]3CCc4[nH]c5c(F)cc(F)cc5c4C3)nc(-c3cncc(F)c3)nc12 [I-139a, (3S)-6,8-difluoro-N-[2-(5-fluoro-3-pyridyl)-8-isopropyl-pyrazolo[1,5-a][1,3,5]triazin-4-yl]-2,3,4,9-tetrahydro-1H-carbazol-3-amine] |
| > 1500 | CC(C)c1cnn2c(NC3CCc4[nH]c5ccccc5c4C3)nc(-c3cncc(C(F)(F)F)c3)nc12 (stereo not drawn) [I-279] |
| < 500 | Cc1nn2c(NCCc3c[nH]c4ccccc34)cc(-c3cncc(F)c3)nc2c1C(C)C [I-83, 5-(5-Fluoro-3-pyridyl)-N-[2-(1H-indol-3-yl)ethyl]-3-isopropyl-2-methyl-pyrazolo[1,5-a]pyrimidin-7-amine] |
| < 500 | Cc1cnn2c(NC3Cc4ccc(O)cc4C3)cc(-c3cncc(F)c3)nc12 (stereo not drawn) [I-51, 2-[[5-(5-Fluoro-3-pyridyl)-3-methyl-pyrazolo[1,5-a]pyrimidin-7-yl]amino]indan-5-ol] |
| < 500 | Fc1cncc(-c2nc(NCCc3c[nH]c4ccccc34)cc(N3CCCCC3)n2)c1 [I-62, 2-(5-Fluoro-3-pyridyl)-N-[2-(1H-indol-3-yl)ethyl]-6-(1-piperidyl)pyrimidin-4-amine] |
| > 1500 | CNC(=O)C(Cc1c[nH]c2ccccc12)Nc1cc(-c2cncc(F)c2)nc2c(C)cnn12 (stereo not drawn) [I-182] |
| < 500 | CC(C)(C)c1cnn2c(NCCc3c[nH]c4ccccc34)nc(-c3cncc(F)c3)nc12 [I-131, N-(2-(1H-Indol-3-yl)ethyl)-8-(tert-butyl)-2-(5-fluoropyridin-3-yl)pyrazolo[1,5-a][1,3,5]triazin-4-amine] |
| 500 to 1000 | Cc1[nH]c2c(F)cc(F)cc2c1CCNc1cc(OC(C)C)nc(-c2cncc(F)c2)n1 [I-74, N-[2-(5,7-Difluoro-2-methyl-1H-indol-3-yl)ethyl]-2-(5-fluoro-3-pyridyl)-6-isopropoxy-pyrimidin-4-amine] |
| 500 to 1000 | CC(C)Oc1cc(NCCc2c[nH]c3c(F)cc(F)cc23)nc(-c2cncc(F)c2)n1 [I-88, N-[2-(5,7-Difluoro-1H-indol-3-yl)ethyl]-2-(5-fluoro-3-pyridyl)-6-isopropoxy-pyrimidin-4-amine] |
| < 500 | CN(C)c1cnn2c(N[C@@H]3Cc4ccc(O)cc4C3)cc(-c3cncc(F)c3)nc12 [I-204a, (2R)-2-[[3-(dimethylamino)-5-(5-fluoro-3-pyridyl)pyrazolo[1,5-a]pyrimidin-7-yl]amino]indan-5-ol] |
| > 1500 | NC(=O)c1cnn2c(NC3CCc4[nH]c5c(F)cccc5c4C3)cc(-c3cncc(F)c3)nc12 (stereo not drawn) [I-231] |
| > 1500 | Cc1nn2c(NCCc3c(C)[nH]c4c(F)cc(F)cc34)cc(-c3cncc(F)c3)nc2c1C(C)C [I-84, N-[2-(5,7-Difluoro-2-methyl-1H-indol-3-yl)ethyl]-5-(5-fluoro-3-pyridyl)-3-isopropyl-2-methyl-pyrazolo[1,5-a]pyrimidin-7-amine] |
| < 500 | CC(C)n1cnc2c(NCCc3cnc4ccccn34)nc(-c3cncc(F)c3)nc21 [I-15, 2-(5-Fluoro-3-pyridyl)-N-(2-imidazo[1,2-a]pyridin-3-ylethyl)-9-isopropyl-purin-6-amine] |
| > 1500 | CC(C)c1cnn2c(N[C@@H]3CCc4[nH]c5ccccc5c4C3)nc(-c3cccc(F)c3)nc12 [I-121, (3R)—N-[2-(3-Fluorophenyl)-8-isopropyl-pyrazolo[1,5-a][1,3,5]triazin-4-yl]-2,3,4,9-tetrahydro-1H-carbazol-3-amine] |
| > 1500 | CNC(=O)[C@@H](Cc1c[nH]c2ccccc12)Nc1cc(-c2cncc(F)c2)nc2c(C)cnn12 [I-189] |
| < 500 | Cc1cnn2c(NC[C@H](O)c3c[nH]c4ccccc34)cc(-c3cncc(F)c3)nc12 [I-150a, (1R)-2-[[5-(5-Fluoro-3-pyridyl)-3-methyl-pyrazolo[1,5-a]pyrimidin-7-yl]amino]-1-(1H-indol-3-yl)ethanol] |
| < 500 | C#Cc1cnn2c(NC3CCc4[nH]c5ccccc5c4C3)nc(-c3cncc(F)c3)nc12 (stereo not drawn) [I-282] |

| IC50 [nM] | SMILES |
| --- | --- |
| > 1500 | CC(C)c1cnn2c(N[C@@H]3CCc4[nH]c5ccccc5c4C3)cc(-c3ccccc3)nc12 [I-26, (3R)—N-(3-isopropyl-5-phenyl-pyrazolo[1,5-a]pyrimidin-7-yl)-2,3,4,9-tetrahydro-1H-carbazol-3-amine] |
| > 1500 | CC(C)c1cnn2c(N[C@@H]3CCc4[nH]c5ccccc5c4C3)cc(-c3cccnc3)nc12 [I-245, (3R)—N-[3-Isopropyl-5-(3-pyridyl)pyrazolo[1,5-a]pyrimidin-7-yl]-2,3,4,9-tetrahydro-1H-carbazol-3-amine] |
| < 500 | Fc1cncc(-c2cc(NCCc3c[nH]c4ccccc34)n3ncc(C4CC4)c3n2)c1 [I-86, 3-Cyclopropyl-5-(5-fluoro-3-pyridyl)-N-[2-(1H-indol-3-yl)ethyl]pyrazolo[1,5-a]pyrimidin-7-amine] |
| > 1500 | Fc1cncc(-c2cc(N[C@@H]3CCc4[nH]c5ccccc5c4C3)n3ncc(C(F)(F)F)c3n2)c1 [I-35, (3R)—N-[5-(5-Fluoro-3-pyridyl)-3-(trifluoromethyl)pyrazolo[1,5-a]pyrimidin-7-yl]-2,3,4,9-tetrahydro-1H-carbazol-3-amine] |
| < 500 | Oc1ccc(CCNc2cc(-c3cncc(F)c3)nc3ccnn23)cc1 [I-49, 4-[2-[[5-(5-Fluoro-3-pyridyl)pyrazolo[1,5-a]pyrimidin-7-yl]amino]ethyl]phenol] |
| > 1500 | CC(C)c1cnn2c(N[C@H]3CCc4[nH]c5ccccc5c4C3)cc(-c3cncc(F)c3)nc12 [I-75b, (3S)—N-[5-(5-Fluoro-3-pyridyl)-3-isopropyl-pyrazolo[1,5-a]pyrimidin-7-yl]-2,3,4,9-tetrahydro-1H-carbazol-3-amine] |
| < 500 | CC(C)c1cnn2c(N[C@@H]3CCc4[nH]c5ccccc5c4C3)nc(-c3cccnc3)nc12 [I-255, (3R)—N-[8-Isopropyl-2-(3-pyridyl)pyrazolo[1,5-a][1,3,5]triazin-4-yl]-2,3,4,9-tetrahydro-1H-carbazol-3-amine] |
| < 500 | O=C(c1cnn2c(N[C@@H]3CCc4[nH]c5ccccc5c4C3)nc(-c3cncc(F)c3)nc12)N1CCOCC1 [I-262, [2-(5-Fluoro-3-pyridyl)-4-[[(3R)-2,3,4,9-tetrahydro-1H-carbazol-3-yl]amino]pyrazolo[1,5-a][1,3,5]triazin-8-yl]-morpholino-methanone] |
| < 500 | CC(C)c1cnn2c(NCCc3c[nH]c4ccccc34)cc(-c3cncnc3)nc12 [I-241, N-[2-(1H-Indol-3-yl)ethyl]-3-isopropyl-5-pyrimidin-5-yl-pyrazolo[1,5-a]pyrimidin-7-amine] |
| > 1500 | Cc1cnn2c(N[C@H](Cc3c[nH]c4ccccc34)C(N)=O)cc(-c3cncc(F)c3)nc12 [I-190a] |
| > 1500 | CC(C)c1cnn2c(N[C@H]3Cc4ccc(O)cc4C3)cc(-c3cncc(C#N)c3)nc12 (single isomer, unassigned) [I-37a] |
| > 1500 | Cc1cnn2c(NCCc3ccnc(O)c3)cc(-c3cncc(F)c3)nc12 [I-193] |
| > 1500 | Cc1cnn2c(N[C@H](Cc3c[nH]c4ccccc34)CN(C)C)cc(-c3cncc(F)c3)nc12 [I-174] |
| > 1500 | Cc1cnn2c(NC(Cc3c[nH]c4ccccc34)C(N)=O)cc(-c3cncc(F)c3)nc12 (stereo not drawn) [I-190b] |
| < 500 | NC(=O)c1cnn2c(N[C@@H]3CCc4[nH]c5ccccc5c4C3)nc(-c3cncc(F)c3)nc12 [I-265, 2-(5-Fluoro-3-pyridyl)-4-[[(3R)-2,3,4,9-tetrahydro-1H-carbazol-3-yl]amino]pyrazolo[1,5-a][1,3,5]triazine-8-carboxamide] |
| < 500 | OCc1cnn2c(NCCc3c[nH]c4c(O)cccc34)cc(-c3cncc(F)c3)nc12 [I-133, 3-[2-[[5-(5-fluoro-3-pyridyl)-3-(hydroxymethyl)pyrazolo[1,5-a]pyrimidin-7-yl]amino]ethyl]-1H-indol-7-ol] |
| > 1500 | Cc1cnn2c(N[C@H](Cc3c[nH]c4ccccc34)C(=O)N(C)C)cc(-c3cncc(F)c3)nc12 [I-187a] |
| < 500 | CC(C)c1cnn2c(N[C@@H]3CCc4[nH]c5c(F)cc(F)cc5c4C3)nc(-c3cncc(F)c3)nc12 [I-139b, (3R)-6,8-difluoro-N-[2-(5-fluoro-3-pyridyl)-8-isopropyl-pyrazolo[1,5-a][1,3,5]triazin-4-yl]-2,3,4,9-tetrahydro-1H-carbazol-3-amine] |
| > 1500 | Cc1cnn2c(NCC(C)(C)c3c[nH]c4ccccc34)cc(-c3cncc(F)c3)nc12 [I-170] |

| SMILES | IC50 [nM] |
| --- | --- |
| N#Cc1cncc(-c2nc(NCCc3c[nH]c4ccccc34)cc(OC3CCCC3)n2)c1 [I-53, 5-[4-(Cyclopentoxy)-6-[2-(1H-indol-3-yl)ethylamino]pyrimidin-2-yl]pyridine-3-carbonitrile] | < 500 |
